Data reported in patent US20260001928A1 (CORTERIA PHARMACEUTICALS, priority 2022, published 2026).
*1 amine or outer side, *2 acyl side, *3 side chain or, on linkers, in order; H or OH if unused. Where a SMILES comes first, the peptide text is derived from it. Side-chain parts run from the residue outwards. [ ]: non-standard residue; d: D form. The star is where a group is joined. C18 diacid = O=C(O)CCCCCCCCCCCCCCCCC(=O)*; γGlu = O=C(O)[C@H](CCC(=O)[*:2])N[*:1]; NMeI = CC[C@H](C)[C@H](NC)C(=O)O; Pentanoyl = CCCCC(=O)*; AEEA = NCCOCCOCC(=O)O; Aib = CC(C)(N)C(=O)O

Target: T1, CFR1R receptor (Homo sapiens, UniProt P34998)
T1 construct: host or cells: CHO-K1 (clone 2)
T1 sequence (P34998 24-415): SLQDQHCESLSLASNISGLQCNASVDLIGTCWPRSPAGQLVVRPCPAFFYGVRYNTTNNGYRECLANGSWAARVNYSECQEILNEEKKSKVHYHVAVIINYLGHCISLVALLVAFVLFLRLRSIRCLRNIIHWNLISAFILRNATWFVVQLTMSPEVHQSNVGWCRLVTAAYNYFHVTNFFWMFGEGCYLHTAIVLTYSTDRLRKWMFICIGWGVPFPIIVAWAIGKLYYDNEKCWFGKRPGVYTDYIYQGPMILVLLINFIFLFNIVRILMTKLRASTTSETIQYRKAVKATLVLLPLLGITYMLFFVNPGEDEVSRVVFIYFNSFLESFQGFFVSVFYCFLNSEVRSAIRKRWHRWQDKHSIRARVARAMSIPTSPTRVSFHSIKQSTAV
Assay: Activity at anti-target CFR1R receptor, cAMP assay in CRF1R-overexpression CHO-K1 cells
Type: cell-based
Conditions: 100% = Sauvagine at 100 nM
Method: Assessment of activity at anti-target CFR1R receptor is done using the same procedure as the one described for the TeloHEAC cell line. The CRF1R-overexpression CHO-K1 cell line clone 2 was purchased from PerkinElmer. Cells were grown in a 10 cm dish at 37° C./5% CO2 in medium (F12 (Hams)/10% FBS/400 μg/ml G418) to near confluence. At that stage, cells were harvested, resuspended to 10 million/mL in culture medium without G418 and with 10% DMSO. 1 mL vial aliquots were slowly frozen to −80° C. in isopropanol and then transferred in liquid nitrogen for storage. These vials were used to run the experiment following the procedure reported in the previous paragraph, except for the compound used in the control well to define the 100% activation (Sauvagine at 100 nM) and the cell density (final cell density: 4000 cells/well)

Compound | Emax (% I) | Emax (% I) (listed as 14)
CCCCC(=O)N[C@H](C(=O)N[C@@H](CC(C)C)C(=O)N[C@@H](CO)C(=O)N[C@@H](CC(C)C)C(=O)N[C@@H](CC(=O)O)C(=O)N[C@@H](C(=O)N1CCC[C@H]1C(=O)N[C@H](C(=O)N[C@@H](CCCCN)C(=O)N[C@@H](CC(C)C)C(=O)N[C@@H](CCCCNC(=O)COCCOCCNC(=O)COCCOCCNC(=O)CC[C@H](NC(=O)CC[C@H](NC(=O)CCCCCCCCCCCCCCCCC(=O)O)C(=O)O)C(=O)O)C(=O)N[C@@H](CCC(N)=O)C(=O)NC(C)(C)C(=O)N[C@@H](CC(C)C)C(=O)N[C@@H](CC(C)C)C(=O)N[C@@H](CCCCN)C(=O)N[C@@H](CCC(N)=O)C(=O)N[C@@H](CCC(=O)O)C(=O)N[C@@H](CCCNC(=N)N)C(=O)N[C@@H](CCC(N)=O)C(=O)N[C@@H](CCCCN)C(=O)N[C@@H](CCCCN)C(=O)N[C@@H](CCC(N)=O)C(=O)N[C@@H](CCCNC(=N)N)C(=O)N[C@@H](CCC(=O)O)C(=O)N[C@@H](CCC(N)=O)C(=O)N[C@@H](C)C(=O)N[C@@H](CCC(=O)O)C(=O)N[C@@H](CCCCN)C(=O)N[C@@H](CC(N)=O)C(=O)N[C@H](C(=O)N[C@@H](CCC(N)=O)C(=O)N[C@H](C(=O)N[C@@H](CC(C)C)C(=O)N[C@@H](CCC(=O)O)C(=O)N[C@@H](CCC(N)=O)C(=O)N[C@H](C(N)=O)C(C)C)[C@@H](C)CC)C(C)C)[C@@H](C)CC)C(C)C)C(C)C [compound 29] (Pentanoyl-VLSLD[dV]PIKLK([AEEA-AEEA-γGlu-γGlu-C18 diacid])Q[Aib]LLKQERQKKQREQAEKNVQILEQV-NH2) | 6 | –
CC[C@H](C)[C@H](NC)C(=O)N[C@H](C(=O)N[C@@H](CC(C)C)C(=O)N[C@@H](CO)C(=O)N[C@@H](CC(C)C)C(=O)N[C@@H](CC(=O)O)C(=O)N[C@@H](C(=O)N1CCC[C@H]1C(=O)N[C@H](C(=O)N[C@@H](CCCCN)C(=O)N[C@@H](CC(C)C)C(=O)N[C@@H](CCCCNC(=O)CC[C@H](NC(=O)CCCCCCCCCCCCCCCCC(=O)O)C(=O)O)C(=O)N[C@@H](CCCCN)C(=O)N[C@H](C(=O)N[C@@H](CC(C)C)C(=O)N[C@@H](CC(C)C)C(=O)N[C@@H](CCC(=O)O)C(=O)N[C@@H](CCC(N)=O)C(=O)N[C@@H](CCC(=O)O)C(=O)N[C@@H](CCCCN)C(=O)N[C@@H](CCC(N)=O)C(=O)N[C@@H](CCCCN)C(=O)N[C@@H](CCCCN)C(=O)N[C@@H](CCC(N)=O)C(=O)N[C@@H](CCCNC(=N)N)C(=O)N[C@@H](CCC(=O)O)C(=O)N[C@@H](CCC(N)=O)C(=O)N[C@@H](C)C(=O)N[C@@H](CCC(=O)O)C(=O)N[C@H](C(=O)N[C@@H](CC(N)=O)C(=O)N[C@@H](CCC(=O)O)C(=O)N[C@@H](CCC(N)=O)C(=O)N[C@H](C(=O)N[C@@H](CC(C)C)C(=O)N[C@@H](C)C(=O)N[C@@H](CCC(N)=O)C(=O)N[C@H](C(N)=O)C(C)C)[C@@H](C)CC)[C@@H](C)O)[C@@H](C)CC)[C@@H](C)CC)C(C)C)C(C)C [SEQ ID No. 142, reference compound] (H-[NMeI]VLSLD[dV]PIKLK([γGlu-C18 diacid])KILLEQEKQKKQREQAETNEQILAQV-NH2) | – | 24
